Laboratory results: patent US8802597B2, “Herbicidal pyrimidines” (E I du Pont de Nemours and Company, priority 2003, dated 2014)

Legend:
Experiment in all cases: Test G pre/postemergence
Type in all cases: in vivo
[1] = tested on: Italian ryegrass (Lolium multiflorum)
Procedure, shortened: (§1)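 Pre- and postemergence greenhouse test; compound in non-phytotoxic solvent/surfactant mix. Post timing: 2–18 cm plants, 1- to 4-leaf. Visual rating vs controls at 12–21 d, 0 (no effect) to 100 (complete control).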

[2] = tested on: Surinam grass (Brachiaria decumbens)
Procedure, shortened: as §1

[3] = tested on: annual bluegrass (Poa annua)
Procedure, shortened: as §1

[4] = tested on: barnyardgrass (Echinochloa crus-galli)
Procedure, shortened: as §1

[5] = tested on: broadleaf signalgrass (Brachiaria platyphylla)
Procedure, shortened: as §1

[6] = tested on: common mallow (Malva sylvestris)
Procedure, shortened: as §1

[7] = tested on: common ragweed (Ambrosia elatior)
Procedure, shortened: as §1

[8] = tested on: downy bromegrass (Bromus tectorum)
Procedure, shortened: as §1

[9] = tested on: field bindweed (Convolvulus arvensis)
Procedure, shortened: as §1

[10] = tested on: guineagrass (Panicum maximum)
Procedure, shortened: as §1

[11] = tested on: itchgrass (Rottboellia cochinchinensis)
Procedure, shortened: as §1

[12] = tested on: johnsongrass (Sorghum halepense)
Procedure, shortened: as §1

[13] = tested on: quackgrass (Elytrigia repens)
Procedure, shortened: as §1

[14] = tested on: southern sandbur (Cenchrus echinatus)
Procedure, shortened: as §1

[15] = Postemergence, 250 g ai/ha, scale 0 to 100
[16] = Postemergence, 16 g ai/ha, scale 0 to 100
[17] = Postemergence, 31 g ai/ha, scale 0 to 100
[18] = Postemergence, 62 g ai/ha, scale 0 to 100
[19] = Postemergence, 125 g ai/ha, scale 0 to 100
[20] = Preemergence, 16 g ai/ha, scale 0-100
[21] = Preemergence, 31 g ai/ha, scale 0-100
[22] = Preemergence, 62 g ai/ha, scale 0-100
[23] = Preemergence, 125 g ai/ha, scale 0-100
[24] = Preemergence, 250 g ai/ha, scale 0-100

SMILES: Nc1nc(C2CC2)nc(C(=O)[O-])c1Cl.[Na+] [Compound 77, 6-amino-5-chloro-2-cyclopropyl-4-pyrimidinecarboxylic acid monosodium salt]
- Plant response rating, Ryegrass, Italian [1, 15]: 40
- Plant response rating, Ryegrass, Italian [1, 16]: 0
- Plant response rating, Ryegrass, Italian [1, 17]: 20
- Plant response rating, Ryegrass, Italian [1, 18]: 30
- Plant response rating, Ryegrass, Italian [1, 19]: 30
- Plant response rating, Ryegrass, Italian [1, 20]: 0
- Plant response rating, Ryegrass, Italian [1, 21]: 0
- Plant response rating, Ryegrass, Italian [1, 22]: 0
- Plant response rating, Ryegrass, Italian [1, 23]: 40
- Plant response rating, Ryegrass, Italian [1, 24]: 75
- Plant response rating, Surinam Grass [2, 15]: 70
- Plant response rating, Surinam Grass [2, 16]: 0
- Plant response rating, Surinam Grass [2, 17]: 10
- Plant response rating, Surinam Grass [2, 18]: 25
- Plant response rating, Surinam Grass [2, 19]: 65
- Plant response rating, Surinam Grass [2, 20]: 0
- Plant response rating, Surinam Grass [2, 21]: 5
- Plant response rating, Surinam Grass [2, 22]: 70
- Plant response rating, Surinam Grass [2, 23]: 90
- Plant response rating, Surinam Grass [2, 24]: 100
- Plant response rating, Bluegrass [3, 15]: 40
- Plant response rating, Bluegrass [3, 16]: 0
- Plant response rating, Bluegrass [3, 17]: 0
- Plant response rating, Bluegrass [3, 18]: 0
- Plant response rating, Bluegrass [3, 19]: 40
- Plant response rating, Bluegrass [3, 20]: 0
- Plant response rating, Bluegrass [3, 21]: 0
- Plant response rating, Bluegrass [3, 22]: 5
- Plant response rating, Bluegrass [3, 23]: 20
- Plant response rating, Bluegrass [3, 24]: 40
- Plant response rating, Barnyardgrass [4, 15]: 75
- Plant response rating, Barnyardgrass [4, 16]: 0
- Plant response rating, Barnyardgrass [4, 17]: 10
- Plant response rating, Barnyardgrass [4, 18]: 40
- Plant response rating, Barnyardgrass [4, 19]: 65
- Plant response rating, Barnyardgrass [4, 20]: 50
- Plant response rating, Barnyardgrass [4, 21]: 55
- Plant response rating, Barnyardgrass [4, 22]: 75
- Plant response rating, Barnyardgrass [4, 23]: 85
- Plant response rating, Barnyardgrass [4, 24]: 90
- Plant response rating, Signalgrass [5, 15]: 70
- Plant response rating, Signalgrass [5, 16]: 0
- Plant response rating, Signalgrass [5, 17]: 30
- Plant response rating, Signalgrass [5, 18]: 50
- Plant response rating, Signalgrass [5, 19]: 60
- Plant response rating, Signalgrass [5, 20]: 5
- Plant response rating, Signalgrass [5, 21]: 10
- Plant response rating, Signalgrass [5, 22]: 75
- Plant response rating, Signalgrass [5, 23]: 90
- Plant response rating, Signalgrass [5, 24]: 95
- Plant response rating, Mallow [6, 15]: 95
- Plant response rating, Mallow [6, 16]: 65
- Plant response rating, Mallow [6, 17]: 75
- Plant response rating, Mallow [6, 18]: 80
- Plant response rating, Mallow [6, 19]: 85
- Plant response rating, Mallow [6, 20]: 30
- Plant response rating, Mallow [6, 21]: 40
- Plant response rating, Mallow [6, 22]: 50
- Plant response rating, Mallow [6, 23]: 80
- Plant response rating, Mallow [6, 24]: 80
- Plant response rating, Ragweed [7, 15]: 100
- Plant response rating, Ragweed [7, 16]: 75
- Plant response rating, Ragweed [7, 17]: 75
- Plant response rating, Ragweed [7, 18]: 95
- Plant response rating, Ragweed [7, 19]: 98
- Plant response rating, Ragweed [7, 20]: 80
- Plant response rating, Ragweed [7, 21]: 95
- Plant response rating, Ragweed [7, 22]: 100
- Plant response rating, Ragweed [7, 23]: 100
- Plant response rating, Ragweed [7, 24]: 100
- Plant response rating, Bromegrass, Downy [8, 15]: 75
- Plant response rating, Bromegrass, Downy [8, 16]: 0
- Plant response rating, Bromegrass, Downy [8, 17]: 20
- Plant response rating, Bromegrass, Downy [8, 18]: 35
- Plant response rating, Bromegrass, Downy [8, 19]: 65
- Plant response rating, Bromegrass, Downy [8, 20]: 0
- Plant response rating, Bromegrass, Downy [8, 21]: 0
- Plant response rating, Bromegrass, Downy [8, 22]: 0
- Plant response rating, Bromegrass, Downy [8, 23]: 10
- Plant response rating, Bromegrass, Downy [8, 24]: 75
- Plant response rating, Bindweed, Field [9, 15]: 100
- Plant response rating, Bindweed, Field [9, 16]: 70
- Plant response rating, Bindweed, Field [9, 17]: 98
- Plant response rating, Bindweed, Field [9, 18]: 98
- Plant response rating, Bindweed, Field [9, 19]: 100
- Plant response rating, Bindweed, Field [9, 20]: 80
- Plant response rating, Bindweed, Field [9, 21]: 90
- Plant response rating, Bindweed, Field [9, 22]: 95
- Plant response rating, Bindweed, Field [9, 23]: 100
- Plant response rating, Bindweed, Field [9, 24]: 100
- Plant response rating, Guineagrass [10, 15]: 75
- Plant response rating, Guineagrass [10, 16]: 0
- Plant response rating, Guineagrass [10, 17]: 0
- Plant response rating, Guineagrass [10, 18]: 65
- Plant response rating, Guineagrass [10, 19]: 65
- Plant response rating, Guineagrass [10, 20]: 30
- Plant response rating, Guineagrass [10, 21]: 70
- Plant response rating, Guineagrass [10, 22]: 85
- Plant response rating, Guineagrass [10, 23]: 85
- Plant response rating, Guineagrass [10, 24]: 95
- Plant response rating, Itchgrass [11, 15]: 80
- Plant response rating, Itchgrass [11, 16]: 0
- Plant response rating, Itchgrass [11, 17]: 35
- Plant response rating, Itchgrass [11, 18]: 65
- Plant response rating, Itchgrass [11, 19]: 70
- Plant response rating, Itchgrass [11, 20]: 0
- Plant response rating, Itchgrass [11, 21]: 10
- Plant response rating, Itchgrass [11, 22]: 45
- Plant response rating, Itchgrass [11, 23]: 85
- Plant response rating, Itchgrass [11, 24]: 90
- Plant response rating, Johnsongrass [12, 15]: 85
- Plant response rating, Johnsongrass [12, 16]: 20
- Plant response rating, Johnsongrass [12, 17]: 65
- Plant response rating, Johnsongrass [12, 18]: 70
- Plant response rating, Johnsongrass [12, 19]: 85
- Plant response rating, Johnsongrass [12, 20]: 10
- Plant response rating, Johnsongrass [12, 21]: 65
- Plant response rating, Johnsongrass [12, 22]: 75
- Plant response rating, Johnsongrass [12, 23]: 85
- Plant response rating, Johnsongrass [12, 24]: 95
- Plant response rating, Quackgrass [13, 15]: 60
- Plant response rating, Quackgrass [13, 16]: 0
- Plant response rating, Quackgrass [13, 17]: 10
- Plant response rating, Quackgrass [13, 18]: 40
- Plant response rating, Quackgrass [13, 19]: 60
- Plant response rating, Quackgrass [13, 20]: 0
- Plant response rating, Quackgrass [13, 21]: 0
- Plant response rating, Quackgrass [13, 22]: 10
- Plant response rating, Quackgrass [13, 23]: 50
- Plant response rating, Quackgrass [13, 24]: 80
- Plant response rating, Sandbur [14, 15]: 40
- Plant response rating, Sandbur [14, 16]: 0
- Plant response rating, Sandbur [14, 17]: 0
- Plant response rating, Sandbur [14, 18]: 10
- Plant response rating, Sandbur [14, 19]: 35
- Plant response rating, Sandbur [14, 20]: 0
- Plant response rating, Sandbur [14, 21]: 20
- Plant response rating, Sandbur [14, 22]: 100
- Plant response rating, Sandbur [14, 23]: 100
- Plant response rating, Sandbur [14, 24]: 100
